Measurements as given in paper PMC2889921 (The Journal of organic chemistry, 2009).
pIC50: −log10 of the molar value.

Molecular target: T1, PKCζ (protein kinase C ζ) (Homo sapiens, UniProt Q05513)
T1 sequence (Q05513 1-592): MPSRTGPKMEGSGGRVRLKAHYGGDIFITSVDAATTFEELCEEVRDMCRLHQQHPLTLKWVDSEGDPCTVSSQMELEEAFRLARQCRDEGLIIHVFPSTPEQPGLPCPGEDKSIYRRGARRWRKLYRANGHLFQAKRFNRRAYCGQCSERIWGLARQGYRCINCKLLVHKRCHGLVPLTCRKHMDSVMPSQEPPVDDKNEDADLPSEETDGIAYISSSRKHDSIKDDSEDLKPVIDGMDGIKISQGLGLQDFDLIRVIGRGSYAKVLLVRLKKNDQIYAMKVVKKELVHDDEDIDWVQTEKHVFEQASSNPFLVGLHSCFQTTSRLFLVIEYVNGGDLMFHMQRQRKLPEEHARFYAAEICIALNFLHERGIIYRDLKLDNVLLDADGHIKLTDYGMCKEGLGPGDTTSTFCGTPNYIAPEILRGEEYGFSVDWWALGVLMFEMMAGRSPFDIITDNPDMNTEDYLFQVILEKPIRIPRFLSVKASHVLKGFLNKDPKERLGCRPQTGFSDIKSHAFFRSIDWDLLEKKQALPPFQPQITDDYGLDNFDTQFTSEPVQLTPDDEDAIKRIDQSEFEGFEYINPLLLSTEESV
Experiment: homogeneous TR-FRET kinase activity assay
Assay type: biochemical

Row | pIC50 | Substance
1 | 4.79 | fibrosterol sulfate A [compound 1]
2 | 5.25 | fibrosterol sulfate B [compound 2]
